Laboratory results from paper PMC11364104, “Discovery of SARS-CoV-2 papain-like protease (PL^pro) inhibitors with efficacy in a murine infection model” (Science Advances, 2024).
Read-outs that look alike come from different tables or passages of the source.

Experiments:
[1] = molecular target: T1, human Nav1.5 sodium channel (Homo sapiens, UniProt Q14524); assay: hNav1.5 automated patch clamp; format: cell-based; settings: read-out: NaV IC50
T1 construct: assay run at Metrion Biosciences Ltd; host or cells: CHO
T1 sequence (Q14524 whole entry): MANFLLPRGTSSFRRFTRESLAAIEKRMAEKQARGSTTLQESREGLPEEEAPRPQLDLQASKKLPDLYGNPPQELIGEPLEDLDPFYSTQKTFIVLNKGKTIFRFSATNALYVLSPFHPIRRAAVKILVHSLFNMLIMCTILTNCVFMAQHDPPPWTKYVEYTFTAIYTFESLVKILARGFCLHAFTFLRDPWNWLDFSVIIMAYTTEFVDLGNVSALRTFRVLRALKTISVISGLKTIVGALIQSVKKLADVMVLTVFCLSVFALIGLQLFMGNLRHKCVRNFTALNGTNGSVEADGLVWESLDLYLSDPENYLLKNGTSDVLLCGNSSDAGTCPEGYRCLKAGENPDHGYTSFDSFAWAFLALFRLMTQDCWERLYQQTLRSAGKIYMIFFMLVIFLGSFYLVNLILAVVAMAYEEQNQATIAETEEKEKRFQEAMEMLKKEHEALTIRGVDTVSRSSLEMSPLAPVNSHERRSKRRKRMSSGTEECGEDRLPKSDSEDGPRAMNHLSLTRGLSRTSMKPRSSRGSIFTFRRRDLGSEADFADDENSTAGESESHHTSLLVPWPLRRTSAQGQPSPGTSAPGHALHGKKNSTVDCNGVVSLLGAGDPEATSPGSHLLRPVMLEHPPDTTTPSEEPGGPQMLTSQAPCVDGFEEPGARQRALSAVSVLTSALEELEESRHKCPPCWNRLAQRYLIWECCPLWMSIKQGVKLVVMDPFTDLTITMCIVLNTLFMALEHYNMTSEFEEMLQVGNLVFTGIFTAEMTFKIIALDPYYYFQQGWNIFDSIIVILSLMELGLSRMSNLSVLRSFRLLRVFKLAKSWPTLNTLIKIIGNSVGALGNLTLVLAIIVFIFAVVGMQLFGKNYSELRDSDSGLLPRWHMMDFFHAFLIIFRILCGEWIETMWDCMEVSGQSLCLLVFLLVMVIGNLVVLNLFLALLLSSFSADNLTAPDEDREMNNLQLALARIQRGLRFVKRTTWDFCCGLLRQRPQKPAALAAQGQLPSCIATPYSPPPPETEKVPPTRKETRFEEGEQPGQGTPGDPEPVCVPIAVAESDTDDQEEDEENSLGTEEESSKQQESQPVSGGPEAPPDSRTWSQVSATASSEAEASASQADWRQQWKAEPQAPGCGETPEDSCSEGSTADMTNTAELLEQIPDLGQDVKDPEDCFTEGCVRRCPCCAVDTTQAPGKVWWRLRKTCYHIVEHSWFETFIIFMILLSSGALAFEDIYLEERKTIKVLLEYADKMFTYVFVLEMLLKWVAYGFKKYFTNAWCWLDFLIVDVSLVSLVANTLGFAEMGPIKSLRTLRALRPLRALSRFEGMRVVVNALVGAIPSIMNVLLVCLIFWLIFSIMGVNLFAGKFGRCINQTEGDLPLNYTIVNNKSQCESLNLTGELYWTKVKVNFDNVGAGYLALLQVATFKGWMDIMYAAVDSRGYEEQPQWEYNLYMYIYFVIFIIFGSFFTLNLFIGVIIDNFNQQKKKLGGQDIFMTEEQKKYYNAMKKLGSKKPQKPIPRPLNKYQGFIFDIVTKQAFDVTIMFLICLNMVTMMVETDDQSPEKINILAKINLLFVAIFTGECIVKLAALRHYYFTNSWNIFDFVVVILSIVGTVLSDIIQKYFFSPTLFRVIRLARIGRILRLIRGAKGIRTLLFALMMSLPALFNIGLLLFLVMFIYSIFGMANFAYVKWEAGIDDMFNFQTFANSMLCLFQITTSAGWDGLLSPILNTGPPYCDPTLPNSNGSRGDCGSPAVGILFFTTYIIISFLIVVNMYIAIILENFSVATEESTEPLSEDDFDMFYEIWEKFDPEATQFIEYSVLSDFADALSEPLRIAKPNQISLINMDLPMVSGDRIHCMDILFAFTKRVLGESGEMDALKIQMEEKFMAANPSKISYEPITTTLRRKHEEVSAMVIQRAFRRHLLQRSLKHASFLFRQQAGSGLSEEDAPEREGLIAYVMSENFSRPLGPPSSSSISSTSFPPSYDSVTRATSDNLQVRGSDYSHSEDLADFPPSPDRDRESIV
Protocol: Hz, and hCav1.2 current was measured as the peak current at 0 mV. All studies were […]
Three vehicle periods each lasting 5 minutes were applied to establish a stable baseline.
This was followed by the addition of increasing concentrations of test compound, with each exposure lasting 5 minutes. Patch clamp data were analyzed using Analyzer Software 6.4.72. Current amplitudes were determined by averaging the last 4 currents under each test condition. The percentage inhibition of each compound was determined by taking the ratio of current amplitude measured in the presence of various concentrations of the test compound (ICompound) versus the vehicle control current (IVehicle): % Inhibition = [1-(I Compound/IVehicle)] * 100%. A dose-response curve was generated and fit to the Hill equation by the Sophion Analyzer software to determine an IC50 value for each compound. The minimum and the […]
CHO cells stably expressing the human Nav1.5 sodium channel (University of Pennsylvania, Philadelphia, PA, hNav1.5 clone #6) were cultured in Hams F12 + Glutamax media supplemented with 10% FBS and Geneticin (0.5 mg/mL) at 37°C and 5% CO2 and subcultured every 2-3 days in T175 flasks. […]
Ionic currents were evaluated in the whole-cell configuration using the Qube384 platform using QChip 384x plates. […]

[2] = in vivo; design: species or system mouse; settings: for Vd: C57BL6, mouse, iv, 1 mg/kg, read-out: Vdss
[3] = molecular target: T2, PDE3B (Homo sapiens, UniProt Q13370); assay: CEREP enzyme inhibition; format: biochemical
T2 construct: purchased Eurofins Cerep
T2 sequence (Q13370 whole entry): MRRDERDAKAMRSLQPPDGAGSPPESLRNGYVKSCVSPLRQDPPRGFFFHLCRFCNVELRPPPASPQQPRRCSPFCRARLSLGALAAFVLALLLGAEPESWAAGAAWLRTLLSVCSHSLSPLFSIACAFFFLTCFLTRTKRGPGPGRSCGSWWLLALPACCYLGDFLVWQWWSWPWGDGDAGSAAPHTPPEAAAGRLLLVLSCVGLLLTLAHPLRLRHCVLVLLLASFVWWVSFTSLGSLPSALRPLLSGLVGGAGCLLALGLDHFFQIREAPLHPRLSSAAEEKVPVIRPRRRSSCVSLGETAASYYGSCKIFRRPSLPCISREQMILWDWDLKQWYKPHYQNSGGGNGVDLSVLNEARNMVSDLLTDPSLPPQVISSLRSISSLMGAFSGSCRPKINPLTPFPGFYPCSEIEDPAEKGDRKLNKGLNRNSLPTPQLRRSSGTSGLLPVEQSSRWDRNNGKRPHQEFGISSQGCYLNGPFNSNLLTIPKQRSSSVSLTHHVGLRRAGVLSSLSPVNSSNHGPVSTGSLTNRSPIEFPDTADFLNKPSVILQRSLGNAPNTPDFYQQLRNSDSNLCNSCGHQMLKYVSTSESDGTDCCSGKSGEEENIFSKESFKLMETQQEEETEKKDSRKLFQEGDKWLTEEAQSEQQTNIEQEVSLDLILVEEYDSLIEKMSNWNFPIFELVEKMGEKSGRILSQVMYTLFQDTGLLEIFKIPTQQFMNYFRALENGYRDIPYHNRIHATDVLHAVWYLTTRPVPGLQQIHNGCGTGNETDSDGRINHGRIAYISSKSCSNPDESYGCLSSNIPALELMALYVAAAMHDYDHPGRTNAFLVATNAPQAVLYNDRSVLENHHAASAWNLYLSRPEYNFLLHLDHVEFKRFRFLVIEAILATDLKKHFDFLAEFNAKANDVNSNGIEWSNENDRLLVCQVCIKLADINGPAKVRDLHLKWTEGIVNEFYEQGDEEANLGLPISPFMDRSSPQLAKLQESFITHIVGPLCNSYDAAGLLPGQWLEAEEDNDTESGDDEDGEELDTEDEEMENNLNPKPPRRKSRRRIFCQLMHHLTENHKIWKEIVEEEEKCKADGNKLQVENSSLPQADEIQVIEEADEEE

[4] = molecular target: T3, Choline Transporter (Homo sapiens, UniProt Q9GZV3); assay: CEREP transporters-binding
T3 construct: purchased Eurofins Cerep
T3 sequence (Q9GZV3 whole entry): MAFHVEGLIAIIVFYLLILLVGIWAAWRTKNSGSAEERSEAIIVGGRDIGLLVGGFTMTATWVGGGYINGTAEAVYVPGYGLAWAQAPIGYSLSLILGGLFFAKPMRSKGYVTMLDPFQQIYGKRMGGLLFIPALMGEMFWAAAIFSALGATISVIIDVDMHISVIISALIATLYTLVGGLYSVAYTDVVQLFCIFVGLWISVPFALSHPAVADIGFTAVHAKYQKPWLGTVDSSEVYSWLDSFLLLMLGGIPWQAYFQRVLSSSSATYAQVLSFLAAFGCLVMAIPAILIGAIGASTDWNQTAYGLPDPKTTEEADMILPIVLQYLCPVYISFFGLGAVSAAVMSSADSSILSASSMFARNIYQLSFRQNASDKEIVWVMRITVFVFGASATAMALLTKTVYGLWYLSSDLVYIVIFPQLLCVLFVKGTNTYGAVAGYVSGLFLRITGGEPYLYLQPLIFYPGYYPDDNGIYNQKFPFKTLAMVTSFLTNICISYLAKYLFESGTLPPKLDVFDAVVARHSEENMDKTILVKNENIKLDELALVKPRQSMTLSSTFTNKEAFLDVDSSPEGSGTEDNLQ

[5] = molecular target: T4, PDE4D2 (Homo sapiens, UniProt Q08499); assay: CEREP enzyme inhibition; format: biochemical
T4 construct: purchased Eurofins Cerep
T4 sequence (Q08499 303-809): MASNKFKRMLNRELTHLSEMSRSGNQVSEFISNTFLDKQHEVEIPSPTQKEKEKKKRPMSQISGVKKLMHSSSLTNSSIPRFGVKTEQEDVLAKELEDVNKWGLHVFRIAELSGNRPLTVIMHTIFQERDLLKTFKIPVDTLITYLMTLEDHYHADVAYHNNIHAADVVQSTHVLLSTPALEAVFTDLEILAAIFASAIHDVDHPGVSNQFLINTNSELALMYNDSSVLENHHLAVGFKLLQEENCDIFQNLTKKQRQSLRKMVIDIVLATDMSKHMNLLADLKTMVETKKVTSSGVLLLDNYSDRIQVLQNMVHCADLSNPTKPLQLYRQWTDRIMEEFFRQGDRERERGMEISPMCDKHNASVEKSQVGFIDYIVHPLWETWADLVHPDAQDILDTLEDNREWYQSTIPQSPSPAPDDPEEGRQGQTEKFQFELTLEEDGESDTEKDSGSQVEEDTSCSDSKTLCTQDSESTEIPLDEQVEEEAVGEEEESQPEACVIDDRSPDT

[6] = molecular target: T5, Androgen Receptor (Binding) (Homo sapiens, UniProt P10275); assay: CEREP NHR-binding
T5 construct: purchased Eurofins Cerep

[7] = Metabolic stability in cryopreserved human hepatocytes
[8] = molecular target: T6, Human Cathepsin K (Homo sapiens, UniProt P43235); assay: biochemical
T6 construct: assay run at Reaction Biology Corporation
T6 sequence (P43235 115-329): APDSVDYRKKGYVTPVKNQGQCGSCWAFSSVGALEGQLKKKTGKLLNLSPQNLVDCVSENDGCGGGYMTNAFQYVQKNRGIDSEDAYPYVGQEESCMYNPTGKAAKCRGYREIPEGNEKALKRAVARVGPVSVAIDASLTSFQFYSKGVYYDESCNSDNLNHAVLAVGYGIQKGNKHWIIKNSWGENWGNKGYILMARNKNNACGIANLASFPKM

[9] = molecular target: CYP2D6 (Homo sapiens, UniProt P10635); assay: biochemical
Chain of CYP2D6 (P10635 whole entry): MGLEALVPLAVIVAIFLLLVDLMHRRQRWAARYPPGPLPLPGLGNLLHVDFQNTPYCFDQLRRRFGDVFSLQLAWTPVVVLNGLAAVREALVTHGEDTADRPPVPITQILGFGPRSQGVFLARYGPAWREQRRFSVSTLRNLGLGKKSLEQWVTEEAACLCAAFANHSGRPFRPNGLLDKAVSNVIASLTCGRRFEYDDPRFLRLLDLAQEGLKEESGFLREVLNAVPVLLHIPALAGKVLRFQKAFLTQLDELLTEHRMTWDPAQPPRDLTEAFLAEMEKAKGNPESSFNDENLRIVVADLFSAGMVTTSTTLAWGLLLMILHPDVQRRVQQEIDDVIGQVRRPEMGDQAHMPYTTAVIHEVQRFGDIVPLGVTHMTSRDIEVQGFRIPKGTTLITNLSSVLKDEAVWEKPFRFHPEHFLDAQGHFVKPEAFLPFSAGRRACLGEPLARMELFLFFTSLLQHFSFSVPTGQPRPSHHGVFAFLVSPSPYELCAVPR

[10] = in vitro; settings: male, cynomolgus monkey, plasma
[11] = in vitro; settings: male, Wistar-Hannover, rat, plasma
[12] = in vivo, Male C57BL6 mouse, 1.0 mg/kg iv, solution, mean n=2
[13] = in vivo, Male C57BL6 mouse, 10 mg/kg po, solution, mean n=2
[14] = mouse Balb c female, PO 15 mg/kg, suspension
[15] = mouse Balb c female, PO 50 mg/kg, suspension
[16] = mouse Balb c female, PO 150 mg/kg, suspension
[17] = mouse C57BL6 male, IV 1 mg/kg, solution
[18] = mouse C57BL6 male, PO 10 mg/kg, solution
[19] = mouse C57BL6 male, PO 30 mg/kg, solution

Compound: Cc1ccc(N2CCN(C)CC2)cc1C(=O)NC1(c2cc(-c3cnn(C)c3)nc3ccccc23)CC1 [Compound 4]
- IC50 [1]: > 100 µM
- Oral F ([2]; Male C57BL6 mouse, 10 mg/kg po, solution, mean n=2): 53.10%
- AUC(0-inf) [2, 12]: 708 ng·h/mL
- half-life [2, 12]: 3.29 h
- clearance ([2]; in vivo, Male C57BL6 mouse, 1.0 mg/kg iv, solution, mean n=2, read-out: CLp): 23.7 mL/min/kg
- AUC(0-inf) [2, 13]: 3760 ng·h/mL
- Cmax [2, 13]: 862 ng/mL
- half-life [2, 13]: 2.19 h
- Tmax ([2]; in vivo, Male C57BL6 mouse, 10 mg/kg po, solution, mean n=2, read-out: Tmax): 2 h
- Cmax ([2]; in vivo, mouse Balb c female, PO 15 mg/kg, suspension): 1140 ng/mL
- Cmax ([2]; in vivo, mouse Balb c female, PO 50 mg/kg, suspension): 5410 ng/mL
- Cmax ([2]; in vivo, mouse Balb c female, PO 150 mg/kg, suspension): 12800 ng/mL
- Cmax ([2]; in vivo, mouse C57BL6 male, PO 30 mg/kg, solution): 1880 ng/mL
- bioavailability ([2]; male, C57BL6, in vivo, po, 10 mg/kg, mouse (m), read-out: Oral F (%)): 53.2%
- Vd ([2]; male, in vivo, Male C57BL6 mouse, 1.0 mg/kg iv, solution, mean n=2): 2.13 L/kg
- Vd ([2]; male, in vivo, mouse (m), intravenous): 2.12 L/kg
- Vd ([2]; male, in vivo, mouse C57BL6 male, IV 1 mg/kg, solution): 2.13 L/kg
- % F Method 3 (Dose * AUC Extrap) [2, 14]: 74.8%
- AUC(0,inf) [2, 14]: 7940 ng·h/mL
- AUC(0-Tlast) [2, 14]: 7940 ng·h/mL
- T1/2 [2, 14]: 1.95 h
- Tmax [2, 14]: 1.25 h
- % F Method 3 (Dose * AUC Extrap) [2, 15]: 84.0%
- AUC(0,inf) [2, 15]: 29800 ng·h/mL
- AUC(0-Tlast) [2, 15]: 29700 ng·h/mL
- T1/2 [2, 15]: 2.01 h
- Tmax [2, 15]: 0.375 h
- % F Method 3 (Dose * AUC Extrap) [2, 16]: 84.0%
- AUC(0,inf) [2, 16]: 89200 ng·h/mL
- AUC(0-Tlast) [2, 16]: 89100 ng·h/mL
- T1/2 [2, 16]: 2.47 h
- Tmax [2, 16]: 0.25 h
- % of dose in feces [2, 17]: 26.0%
- AUC(0,inf) [2, 17]: 708 ng·h/mL
- AUC(0-Tlast) [2, 17]: 706 ng·h/mL
- T1/2 [2, 17]: 3.29 h
- % F Method 3 (Dose * AUC Extrap) [2, 18]: 53.1%
- % of dose in feces [2, 18]: 12.6%
- AUC(0,inf) [2, 18]: 3760 ng·h/mL
- AUC(0-Tlast) [2, 18]: 3760 ng·h/mL
- T1/2 [2, 18]: 2.19 h
- Tmax [2, 18]: 2 h
- % F Method 3 (Dose * AUC Extrap) [2, 19]: 67.4%
- % of dose in feces [2, 19]: 10.8%
- AUC(0,inf) [2, 19]: 14300 ng·h/mL
- AUC(0-Tlast) [2, 19]: 14300 ng·h/mL
- T1/2 [2, 19]: 2.17 h
- Tmax [2, 19]: 2 h
- tolerability ([2]; mouse, oral, highest dose studied (500 mg/kg)): tolerated
- inhibition at 30 µM [3]: 4%
- inhibition at 30 µM [4]: 25%
- inhibition at 30 µM [5]: 20%
- inhibition at 30 µM [6]: -10%
- hepatocyte CLint [7]: 8.84 µL/min/1e6 cells
- IC50 [8]: > 100 µM
- IC50 [9]: > 30 µM
- fraction unbound [10]: 0.101
- fraction unbound [11]: 0.241
